Experimental data published in PubChem BioAssay AID624452 (Sanford-Burnham Center for Chemical Genomics, 2012).

Tested on: human liver microsomes, compound remaining, LC-MS
Assay: metabolic stability in human liver microsomes, ADME assay, biochemical, with and without NADPH, LC-MS, set 2 (AID 624452);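 also: compound left measured after 60 min microsomal incubation at 37 °C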
Details: at 1 µM; for percent remaining without NADPH: measured here: stability without NADPH control

CSc1nc(-c2ccc(C)cc2)nc(C(Cl)Cl)n1
percent remaining with NADPH: 10.8%
percent remaining without NADPH: 42.1%

COc1nc(-c2ccccc2)nnc1-c1ccccc1
percent remaining with NADPH: 8.41%
percent remaining without NADPH: 59.3%

CC[C@H]1CN2CCc3cc(OC)c(OC)cc3[C@@H]2C[C@@H]1C[C@H]1NCCc2cc(OC)c(OC)cc21
percent remaining with NADPH: 45.4%
percent remaining without NADPH: 89.3%

COc1ccc(S(=O)(=O)n2nc(OC(=O)c3ccccc3)cc2N)cc1
percent remaining with NADPH: 52.9%
percent remaining without NADPH: 65.4%

O=S1(=O)Nc2c(ccc3cccnc23)-c2ccccc21
percent remaining with NADPH: 64.4%
percent remaining without NADPH: 68%

O=C1NCCCc2c1oc1ccc(O)cc21
percent remaining with NADPH: 62.1%
percent remaining without NADPH: 63%

Cc1ccc(-n2c(N)c(C#N)c(-c3ccccc3)c(C#N)c2=O)cc1
percent remaining with NADPH: 64%
percent remaining without NADPH: 78.9%

COc1ccc(OC)c(-c2nnc3n2N=C(c2ccc(OC)c(OC)c2)CS3)c1
percent remaining with NADPH: 5.35%
percent remaining without NADPH: 79.3%

Cc1cccc(-n2cnc3cc(C(=O)N4CCCCC4)ccc32)c1
percent remaining with NADPH: 37.9%
percent remaining without NADPH: 70%
